{"source": "EPA's ToxValDB 9.5 (doi:10.2903/j.efsa.2016.4503)", "key": {"[1]": {"test_system": "Apis mellifera", "details": "acute, mortality"}, "[2]": {"test_system": "Coturnix japonica", "details": "chronic"}, "[3]": {"test_system": "Pimephales promelas", "details": "chronic/long-term; duration: 28 days"}, "[4]": {"test_system": "Anas platyrhynchos", "details": "acute; oral; unspecified; mortality"}, "[5]": {"test_system": "Oncorhynchus mykiss", "details": "acute; duration: 96 hours; mortality"}, "[6]": {"test_system": "Colinus virginianus", "details": "acute; oral; mortality"}, "[7]": {"test_system": "Bibionidae", "details": "chronic/long-term; duration: 23 days; reproduction"}, "[8]": {"test_system": "Tagia sp.", "details": "chronic/long-term; reproduction"}, "[9]": {"test_system": "Hypoaspis aculeifer", "details": "chronic/long-term; reproduction"}, "[10]": {"test_system": "Rattus norvegicus"}, "[11]": {"test_system": "Aphidius rhopalosiphi", "assay": "LR50; higher = less toxic", "details": "not reported; mortality"}}}
{"smiles": "Cc1ccc(-c2c(Cl)nc(C#N)n2S(=O)(=O)N(C)C)cc1", "values": [{"measurement": "LD50", "setting": "[1]; dermal", "value": 9.52, "unit": "µg/piece"}, {"measurement": "LD50", "setting": "[1]; oral, unspecified", "value": "> 31.8", "unit": "µg/piece"}, {"measurement": "NOAEL", "setting": "[2]", "value": 151, "unit": "mg/kg-day"}, {"measurement": "NOEC", "setting": "[3]", "value": 0.09, "unit": "mg/L"}, {"measurement": "LD50", "setting": "[4]", "value": "> 2000", "unit": "mg/kg-day"}, {"measurement": "LC50", "setting": "[5]", "value": "> 0.107", "unit": "µg/mL"}, {"measurement": "LD50", "setting": "[6]", "value": "> 2000", "unit": "mg/kg-day"}, {"measurement": "NOEC", "setting": "[7]", "value": 0.0117, "unit": "mg/L"}, {"measurement": "NOEC", "setting": "[8]", "value": 2, "unit": "mg/kg"}, {"measurement": "NOEC", "setting": "[9]", "value": 18.7, "unit": "mg/kg"}, {"measurement": "LD50", "setting": "[10]; acute, oral, mortality", "value": "> 5000", "unit": "mg/kg"}, {"measurement": "NOAEL", "setting": "[10]; chronic, duration: 2 years, organ weight", "value": 17, "unit": "mg/kg-day"}, {"measurement": "NOAEL", "setting": "[10]; reproduction developmental, body weight", "value": 89, "unit": "mg/kg-day"}, {"measurement": "NOAEL", "setting": "[10]; subchronic, duration: 90 days, oral, organ weight", "value": 29.5, "unit": "mg/kg-day"}, {"measurement": "LR50", "setting": "[11]", "value": "> 209", "unit": "g/ha"}]}
